The text below walks through data of patent US9340577B2, “HLA binding motifs and peptides and their uses” (priority 1992, dated 2016).

Among the targets are A*3301 (Homo sapiens, UniProt P04439, A270S/D185E/E176V/E277Q/E87N/F33T/G231S/H175R/I121M/I218V/I322F/K168Q/K210R/L300P/L318F/M331R/P217A/Q86R/Q94H/R138Q/T323A/T345S/T97I/V358M/Y195H); A31 (A*3101) (Homo sapiens, UniProt P04439, A270S/D185E/E176V/E277Q/F33T/G231S/G80R/H175R/I121M/I218V/I322F/K168Q/L300P/L318F/M331R/P217A/Q94H/R138Q/T323A/T345S/T97I/V358M); A*6801 (Homo sapiens, UniProt P04439, A269V/D185E/E176V/E277Q/E87N/F33Y/G231S/I121M/I166T/I218V/L180W/L300P/L318F/N151K/P208A/P217A/Q86R/R169H/T345S); HLA-A11 (A*1101) (Homo sapiens, UniProt P04439, A114D/D185E/E176A/F33Y/L180Q/S129P/T187R); HLA-A*0201 (HLA-A2.1) (Homo sapiens, UniProt P04439, D140Y/D185E/D98H/E176V/E277Q/G131W/G231S/I119V/I121R/I166T/I218V/L300P/L318F/N151K/N90K/P208A/P217A/Q86G/Q94H/R138H/R169H/T345S).

Assay in all cases: biochemical
What all share (type): binding

No end group written: not given here.

One may read the IC50 as the point on the concentration scale where inhibition reaches its midpoint. In the case of ALQGLAQSR [Peptide 88.0398], the IC50 against A*3301 was over 20000 nM; at A31 (A*3101), 311 nM; against A*6801 it was 11300 nM; against HLA-A11 (A*1101), 2760 nM.
Consider NTMHYTNWK [Peptide 1589.16], for which the IC50 turned out to be 402 nM on A*3301, 4920 nM against A31 (A*3101), 11 nM against A*6801 and 11 nM on HLA-A11 (A*1101).
As for MTLESILRR [Peptide 9012.0215], the IC50 against A*3301 is 94 nM; at A31 (A*3101), 243 nM; at A*6801 it was 15 nM; against HLA-A11 (A*1101) it was 14 nM.
For YSVYGTTLEK [Peptide 78.0054] the same measures were over 20000 nM, over 20000 nM, 36 nM and 100 nM.
On to KAGPGGYPRK [Peptide 73.0334], for which, at A*3301, the IC50 is over 20000 nM.
LVYRDDFPK [Peptide 88.0280] had a 50% inhibitory concentration (IC50) against A*6801 of 110 nM.
Regarding KQLCDLLIR [Peptide 1513.14], the 50% inhibitory concentration (IC50) at A*3301 was 6900 nM; against A31 (A*3101) it was 24 nM; on A*6801, over 20000 nM; against HLA-A11 (A*1101) it was 1680 nM.
For KVCLRLLSK [Peptide 78.0302] the same measures were over 20000 nM, 525 nM, over 20000 nM and 230 nM.
For EFVSFLSALK [Peptide 1587.36], the figures for the IC50 against A*3301 and against A*6801 were 17 nM and 22 nM, respectively.
In the case of KTLGISYGRK [Peptide 66.0073], the concentration for half-maximal inhibition (IC50) against A*3301 is over 20000 nM.
Consider RQLKETELRK [Peptide 9012.0249], for which the IC50 was 12600 nM at A*3301, over 20000 nM against A31 (A*3101) and over 20000 nM against A*6801.
Turning to IVVSAELPK [Peptide 1556.19], the concentration for half-maximal inhibition (IC50) is over 20000 nM on A*3301, over 20000 nM against A31 (A*3101), 218 nM on A*6801 and 93 nM against HLA-A11 (A*1101).
Consider AVHLCTETSK [Peptide 88.0230], for which the IC50 was over 20000 nM on A*3301, 10500 nM against A*6801 and 87 nM at HLA-A11 (A*1101).
For TFPNPFPFDK [Peptide 88.0162], the IC50 is 1830 nM against A*3301, 2260 nM at A31 (A*3101), 1110 nM against A*6801 and 221 nM on HLA-A11 (A*1101).
In the case of SQIQYWQLIR [Peptide 88.0199], the IC50 against A*3301 came to 7540 nM; on A31 (A*3101), 219 nM; at HLA-A11 (A*1101), 84 nM.
On to VLMWKFDSR [Peptide 9017.0066], for which the IC50 on A*3301 was 63 nM; at A31 (A*3101) it was 72 nM; against A*6801 it was 516 nM; against HLA-A11 (A*1101) it was 883 nM.
With HLVPWDQLFR [Peptide 9012.0236], the IC50 was 308 nM on A31 (A*3101) and 21 nM against A*6801.
For GTGISYGRK [Peptide 66.0062], the 50% inhibitory concentration (IC50) against A*3301 and at A31 (A*3101) was over 20000 nM in each case.
MSFLTALKR [Peptide 1587.11]: the concentration for half-maximal inhibition (IC50) at A31 (A*3101) is 49 nM; against A*6801, 2.4 nM; against HLA-A11 (A*1101), 26 nM.
At A*3301, KVGPGGYPRRK [Peptide 73.0336] gave a concentration for half-maximal inhibition (IC50) of over 20000 nM.
For the compound KQSRAAKRR [Peptide 88.0325], the IC50 turned out to be 512 nM at A*3301, 1120 nM against A*6801 and 18800 nM on HLA-A11 (A*1101).
On to QQQMFLGTVK [Peptide 88.0219], for which the values for the half-inhibitory concentration (IC50) against A*3301, against A*6801 and against HLA-A11 (A*1101) were over 20000 nM, 1460 nM and 13 nM, respectively.
As for TTYAEPPK [Peptide 1556.11], the concentration for half-maximal inhibition (IC50) was over 20000 nM on A*3301, over 20000 nM against A31 (A*3101) and 320 nM against A*6801.
Turning to FVSFLSALK [Peptide 1587.37], the IC50 against A31 (A*3101) worked out at 4370 nM; at A*6801, 13 nM; on HLA-A11 (A*1101), 8.8 nM.
KTLGISYGRKK [Peptide 66.0090] had an IC50 at A*3301 of over 20000 nM.
With FVVYRDSIPK [Peptide 88.0026], half-maximal inhibition on A*6801 (IC50) was put at 10 nM.
Consider LQHASTSTPK [Peptide 88.0224], for which the half-inhibitory concentration (IC50) against A*3301 was over 20000 nM; against A31 (A*3101), 5820 nM; on HLA-A11 (A*1101) it was 20 nM.
With LALTALIKPK [Peptide 9017.0227], the 50% inhibitory concentration (IC50) against A*3301 was over 20000 nM; at A*6801, 3480 nM; against HLA-A11 (A*1101) it was 34 nM.
Regarding IVYRDNNPY [Peptide 78.0292], the IC50 against A*3301 was over 20000 nM; on A31 (A*3101), over 20000 nM; at HLA-A11 (A*1101), 18 nM.
Regarding TVTYSPALNK [Peptide 1556.40], the IC50 against A*3301 is over 20000 nM; at A31 (A*3101), over 20000 nM; against A*6801 it was 165 nM.
Take “AVDLYHFLK [Peptide 940-06, reference compound]”: the active receptor at HLA-A11 (A*1101) was 10%.
In the case of AQVLHLLKR [Peptide 88.0364], the IC50 was 3780 nM on A*3301, 98 nM against A31 (A*3101) and 19500 nM against A*6801.
As to ITIEKLLEK [Peptide 1587.31], the IC50 came to 11000 nM against A*3301, 16 nM against A*6801 and 14 nM at HLA-A11 (A*1101).
For VQLDIQSTK [Peptide 78.0301] the same measures were over 20000 nM, over 20000 nM and 216 nM.
As for RQRKIDWLIK [Peptide 9017.0247], the IC50 is over 20000 nM against A*3301, 95 nM on A31 (A*3101) and over 20000 nM at A*6801.
In the case of FAFADLTVVY [Peptide 78.0115], the concentration for half-maximal inhibition (IC50) against A*3301 and at A31 (A*3101) was over 20000 nM each time.
Take QQLLRREVY [Peptide E6-42]: the “binding class for HLA-A11.2” value at HLA-A11 (A*1101) is “weak affinity”.
As for WTIVYIEYR [Peptide 9017.0117], the IC50 on A*3301 was 92 nM; against A*6801 it was 17 nM.
`CC(C)C[C@H](NC(=O)[C@H](CCCNC(=N)N)NC(=O)[C@H](Cc1ccccc1)NC(=O)CNC(=O)[C@@H](N)Cc1ccc(O)cc1)C(=O)NCC(=O)N[C@@H](Cc1ccccc1)C(=O)N[C@@H](CC(C)C)C(=O)N[C@@H](Cc1c[nH]cn1)C(=O)O` [Peptide 1556.26]: the IC50 against A*3301 came out at 9910 nM; on A31 (A*3101) it was 3250 nM; on HLA-A11 (A*1101), 19 nM.
For the compound ILWKDIFHR [Peptide 9012.0201], the IC50 on A*3301 turned out to be 4.8 nM; at A31 (A*3101), 6.4 nM; on A*6801, 235 nM.
For KQGAMLAVFK [Peptide 88.0142] the same measures were over 20000 nM, 519 nM and 235 nM.
Regarding AQVLHVLKR [Peptide 88.0335], the half-inhibitory concentration (IC50) against A*3301 was determined as 64 nM; at A*6801, 6530 nM; on HLA-A11 (A*1101), 79 nM.
With KVGSLQYLK [Peptide 66.0057], the concentration for half-maximal inhibition (IC50) against A*3301 was over 20000 nM.
On to GLVFGILIKR [Peptide 9012.0244], for which the half-inhibitory concentration (IC50) was 2640 nM at A*3301, 2110 nM against A31 (A*3101) and 489 nM on HLA-A11 (A*1101).
As for KISEYRHYNK [Peptide 88.0110], the 50% inhibitory concentration (IC50) against A*3301 is over 20000 nM.
The same measure, in the same setting: the same measure for AVDLSFFLK [Peptide 73.0184]: over 20000 nM.
As to IVIKRRQQK [Peptide 9012.0206], the concentration for half-maximal inhibition (IC50) stood at 9110 nM against A*3301, 712 nM on A31 (A*3101) and 3300 nM against A*6801.
For IVKETELRK [Peptide 9012.0209] the same measures were over 20000 nM, over 20000 nM and 1730 nM.
In the case of IVLVMIAM, in the test with HLA-A*0201 (HLA-A2.1), the “binding to HLA-A2.1 (column 3; no allele head shown for these rows)” value turned out to be 0.0001.
As to AACWRSRRK [Peptide 88.0260], the IC50 against A*3301 is over 20000 nM.
Turning to LVMIAMEGGHA, the “binding to HLA-A2.1 (column 3; no allele head shown for these rows)” value in the test with HLA-A*0201 (HLA-A2.1) is reported as 0.0005.
Turning to TLEEVPTA, the A2.1 in the test with HLA-A*0201 (HLA-A2.1) was determined as 0.
Regarding RTEVYQFAFK [Peptide 78.0062], the concentration for half-maximal inhibition (IC50) on A*3301 was found to be 9180 nM; against A31 (A*3101) it was 1690 nM; against A*6801 it was 3310 nM.
For YVKVLEYVI, in the test with HLA-A*0201 (HLA-A2.1), the “binding to HLA-A2.1 (column 3; no allele head shown for these rows)” value is 0.0002.
The same measure, in the same setting: the same measure for VTKAEMLESV: 0.
Take LLKYRAREPV: the A2.1 with HLA-A*0201 (HLA-A2.1) came to 0.
Take TFPHAFPFDK [Peptide 88.0176]: the figures for the IC50 on A*3301, against A31 (A*3101) and against A*6801 were over 20000 nM, 4960 nM and 200 nM, respectively.
Compound ALEAQQEAL gave an A2.1 in the test with HLA-A*0201 (HLA-A2.1) of under 0.0003.
Turning to IIVLVMIAM, the “binding to HLA-A2.1 (column 3; no allele head shown for these rows)” value in the test with HLA-A*0201 (HLA-A2.1) is 0.0007.
Compound LLGDNQIM registered an A2.1 with HLA-A*0201 (HLA-A2.1) of 0.
On to RKLLTQDLV, for which the “binding to HLA-A2.1 (column 3; no allele head shown for these rows)” value with HLA-A*0201 (HLA-A2.1) was found to be 0.
The same measure, in the same setting: in the case of IMPKAGLLI it was 0.0064; in that of GIELMEVDPI, under 0.0002.
With GREHSAYGE, in the test with HLA-A*0201 (HLA-A2.1), the A2.1 is recorded as under 0.0002.
Still for that read-out and setting: in the case of PLVLGTLEEV it was 0.0008; in that of KLPGLLSRDL, 0.
LIIVLVMIAM: in the test with HLA-A*0201 (HLA-A2.1), the “binding to HLA-A2.1 (column 3; no allele head shown for these rows)” value is 0.0003.
Still for that read-out and setting: the same measure for KLLTQDLVQEKYL: 0.0060.
As to ATVGIJIGV [Peptide 1345.02], on HLA-A*0201 (HLA-A2.1), the “A*0201” value is 0.1595.
On to TVYAEPPR [Peptide 1556.10], for which the concentration for half-maximal inhibition (IC50) against A*3301 turned out to be 11800 nM; against A31 (A*3101), 8410 nM; against A*6801 it was 21 nM.
For the compound SAFPTTINFT, the “binding to HLA-A2.1 (column 3; no allele head shown for these rows)” value with HLA-A*0201 (HLA-A2.1) is given as 0.
